Data taken from patent US5643912A, “Pyrazinoic acid esters as anti-mycobacterium avium agents” (The Research Foundation of State University of NY, priority 1996, dated 1997).
Converted amounts (≈) assume the structure as drawn. Read-outs that look alike come from different tables or passages of the source.

Key:
M. avium 101 = test: Broth dilution MIC vs M. avium 101; type: cell-based; settings: Mycobacterium avium, 7H10 broth, pH 5.8
M. kansasii SWK = test: Broth dilution MIC vs M. kansasii SWK; type: cell-based; settings: Mycobacterium kansasii, 7H10 broth, pH 5.8
M. tuberculosis 102 = test: Broth dilution MIC vs M. tuberculosis 102; type: cell-based
M. tuberculosis BUR = test: Broth dilution MIC vs M. tuberculosis BUR; type: cell-based; settings: Mycobacterium tuberculosis, M. tuberculosis BUR (footnote b), 7H10 broth, pH 5.8
M. avium LPR = test: Broth dilution MIC vs M. avium LPR; type: cell-based; settings: Mycobacterium avium, M. avium LPR (footnote a), 7H10 broth, pH 5.8
[1] = test system: Myobacterium tuberculosis H37RV; settings: cited from earlier work
[2] = Mycobacterium tuberculosis, 102, pH 5.8, M. tuberculosis 102, 7H10 broth, read-out: MIC

Compound CCCCCCCCCCOC(=O)c1cnc(F)cn1 [Example 27] has an MIC (M. avium 101) of 32 µg/mL (≈ 113 µM), an MIC (M. kansasii SWK) of 1 µg/mL (≈ 3.54 µM) and an MIC (M. tuberculosis 102; [2]) of 2 µg/mL (≈ 7.08 µM).

C=CC(C)OC(=O)c1cnc(Cl)cn1 (centres unmarked) [Example 32] showed an MIC (M. avium 101) of 64 µg/mL (≈ 301 µM), an MIC (M. kansasii SWK) of less than 1 µg/mL and an MIC (M. tuberculosis 102; [2]) of 2 µg/mL (≈ 9.41 µM).

For CCCCCCCC(C)(CCCC)OC(=O)c1cnc(Cl)cn1 (centres unmarked) [Example 37], the MIC (M. avium 101) was greater than 64 µg/mL, the MIC (M. kansasii SWK) was 16 µg/mL (≈ 46.9 µM) and the MIC (M. tuberculosis 102; [2]) was 8 µg/mL (≈ 23.5 µM).

CCC(C)OC(=O)c1cnccn1 (centres unmarked) [Example 50] showed an MIC (M. avium 101) of 256 µg/mL (≈ 1420 µM), an MIC (M. kansasii SWK) of 16 µg/mL (≈ 88.8 µM) and an MIC (M. tuberculosis 102; [2]) of 8 µg/mL (≈ 44.4 µM).

In the case of CCCCOC(=O)c1cnc(Cl)cn1 [Example 31], the MIC (M. avium 101) is reported as 64 µg/mL (≈ 298 µM), the MIC (M. kansasii SWK) is reported as less than 1 µg/mL and the MIC (M. tuberculosis 102; [2]) is reported as 0.25 µg/mL (≈ 1.16 µM).

CCCCCCOC(=O)c1cnc(F)cn1 [Example 28] gave an MIC (M. avium 101) of 64 µg/mL (≈ 283 µM) and an MIC (M. kansasii SWK) of 8 µg/mL (≈ 35.4 µM).

Work on CCCCCOC(=O)c1cnc(Cl)cn1 [Example 26] yielded an MIC (M. avium 101) of 32 µg/mL (≈ 140 µM), an MIC (M. kansasii SWK) of 0.03 µg/mL (≈ 0.131 µM) and an MIC (M. tuberculosis 102; [2]) of 0.06 µg/mL (≈ 0.262 µM).

Work on CCCCCCCCCCCCCCCOC(=O)c1cnc(Cl)cn1 [Example 7] yielded an MIC (M. avium 101) greater than 16 µg/mL, an MIC (M. kansasii SWK) of 0.25 µg/mL (≈ 0.678 µM) and an MIC (M. tuberculosis 102; [2]) of 0.13 µg/mL (≈ 0.352 µM).

Work on CC(C)COC(=O)c1cnc(Cl)cn1 [Example 34] yielded an MIC (M. avium 101) of 64 µg/mL (≈ 298 µM), an MIC (M. kansasii SWK) of less than 1 µg/mL and an MIC (M. tuberculosis 102; [2]) of 2 µg/mL (≈ 9.32 µM).

Compound O=C(OC(C(F)(F)F)C(F)(F)F)c1cnccn1 [Example 60] has an MIC (M. tuberculosis BUR) of 100 µg/mL (≈ 365 µM).

Work on CCCCCCCOC(=O)c1cnc(Cl)cn1 [Example 18] yielded an MIC (M. avium 101) of 8 µg/mL (≈ 31.2 µM), an MIC (M. kansasii SWK) of less than 0.03 µg/mL and an MIC (M. tuberculosis 102; [2]) of 0.06 µg/mL (≈ 0.234 µM).

CC(C)(C)c1ccc(OC(=O)c2cnccn2)cc1 [Example 65] gave an MIC (M. kansasii SWK) of 25 µg/mL (≈ 97.5 µM) and an MIC (M. tuberculosis 102; [2]) of 25 µg/mL (≈ 97.5 µM).

Compound CCCCCCCC(C)(CCCCC)OC(=O)c1cnc(Cl)cn1 (centres unmarked) [Example 47] has an MIC (M. avium 101) greater than 64 µg/mL and an MIC (M. tuberculosis 102; [2]) of 2 µg/mL (≈ 5.64 µM).

With CCCCCCC(C)(C)OC(=O)c1cnc(Cl)cn1 [Example 21] the MIC (M. avium 101) was 64 µg/mL (≈ 225 µM), the MIC (M. kansasii SWK) was 1 µg/mL (≈ 3.51 µM) and the MIC (M. tuberculosis 102; [2]) was 0.25 µg/mL (≈ 0.878 µM).

Compound CCCCCCCCC(C)(CCCC)OC(=O)c1cnc(Cl)cn1 (centres unmarked) [Example 38] has an MIC (M. avium 101) greater than 64 µg/mL, an MIC (M. kansasii SWK) greater than 16 µg/mL and an MIC (M. tuberculosis 102; [2]) of 16 µg/mL (≈ 45.1 µM).

Compound CCCCCC(C)(CCC)OC(=O)c1cnc(Cl)cn1 (centres unmarked) [Example 44] has an MIC (M. avium 101) greater than 256 µg/mL, an MIC (M. kansasii SWK) of 4 µg/mL (≈ 13.4 µM) and an MIC (M. tuberculosis 102; [2]) of 4 µg/mL (≈ 13.4 µM).

With CCCCCCCCCC(C)(CCCCCCC)OC(=O)c1cnc(Cl)cn1 (centres unmarked) [Example 48] the MIC (M. avium 101) was greater than 64 µg/mL and the MIC (M. tuberculosis 102; [2]) was 0.5 µg/mL (≈ 1.22 µM).

Compound CCCCCCC(C)(CCCCC)OC(=O)c1cnc(Cl)cn1 (centres unmarked) [Example 46] has an MIC (M. avium 101) greater than 64 µg/mL, an MIC (M. kansasii SWK) of 8 µg/mL (≈ 23.5 µM) and an MIC (M. tuberculosis 102; [2]) of 2 µg/mL (≈ 5.87 µM).

Work on COC(=O)c1cnc(F)cn1 [Example 23] yielded an MIC (M. avium 101) of 64 µg/mL (≈ 410 µM), an MIC (M. kansasii SWK) of 8 µg/mL (≈ 51.2 µM) and an MIC (M. tuberculosis 102; [2]) of 4 µg/mL (≈ 25.6 µM).

In the case of CCCCCC(C)(CCCC)OC(=O)c1cnc(Cl)cn1 (centres unmarked) [Example 40], the MIC (M. avium 101) is reported as greater than 256 µg/mL, the MIC (M. kansasii SWK) is reported as 16 µg/mL (≈ 51.1 µM) and the MIC (M. tuberculosis 102; [2]) is reported as 4 µg/mL (≈ 12.8 µM).

COCCOCCOCCOC(=O)c1cnc(Cl)cn1 [Example 12] showed an MIC (M. avium 101) of 64 µg/mL (≈ 210 µM), an MIC (M. kansasii SWK) of 8 µg/mL (≈ 26.3 µM) and an MIC (M. tuberculosis 102; [2]) of 2 µg/mL (≈ 6.56 µM).

For O=C(Oc1c(F)c(F)c(F)c(F)c1F)c1cnccn1 [Example 66], the MIC (M. kansasii SWK) was 25 µg/mL (≈ 86.2 µM).

Work on CCCCCCCCOC(=O)c1cnc(Cl)cn1 [Example 14] yielded an MIC (M. avium 101) of 16 µg/mL (≈ 59.1 µM), an MIC (M. kansasii SWK) of less than 0.03 µg/mL and an MIC (M. tuberculosis 102; [2]) of 0.06 µg/mL (≈ 0.222 µM).

COC(=O)c1cnc(Cl)cn1 [Example 5] gave an MIC (M. avium LPR) of 64 µg/mL (≈ 371 µM), an MIC (M. kansasii SWK) of 2 µg/mL (≈ 11.6 µM) and an MIC (M. tuberculosis 102; [2]) of 4 µg/mL (≈ 23.2 µM).

CCCCCCC(C)(CCCCCC)OC(=O)c1cnc(Cl)cn1 [Example 17] showed an MIC (M. avium LPR) of 16 µg/mL (≈ 45.1 µM), an MIC (M. kansasii SWK) of 2 µg/mL (≈ 5.64 µM) and an MIC (M. tuberculosis 102; [2]) of 0.25 µg/mL (≈ 0.704 µM).

With O=C(OCc1ccccc1)c1cnccn1 [Example 52] the MIC (M. avium 101) was 64 µg/mL (≈ 299 µM), the MIC (M. kansasii SWK) was 1 µg/mL (≈ 4.67 µM) and the MIC (M. tuberculosis 102; [2]) was 1 µg/mL (≈ 4.67 µM).

For CCCCCCCCC(C)OC(=O)c1cnc(Cl)cn1 (centres unmarked) [Example 19], the MIC (M. avium 101) was 32 µg/mL (≈ 107 µM), the MIC (M. kansasii SWK) was 0.13 µg/mL (≈ 0.435 µM) and the MIC (M. tuberculosis 102; [2]) was 0.03 µg/mL (≈ 0.1 µM).

Compound O=C(Oc1ccc([N+](=O)[O-])cc1)c1cnccn1 [Example 63] has an MIC (M. kansasii SWK) of 25 µg/mL (≈ 102 µM) and an MIC (M. tuberculosis BUR) of 12.5 µg/mL (≈ 51 µM).

CCCCCCC(C)(C)OC(=O)c1cnc(Cl)cn1 [Example 22] showed an MIC (M. tuberculosis 102; M. tuberculosis 102, 7H10 broth, pH 5.8) of 0.13 µg/mL (≈ 0.456 µM).

O=C(OCc1ccccc1)c1cnc(Cl)cn1 [Example 30] gave an MIC (M. avium 101) of 8 µg/mL (≈ 32.2 µM), an MIC (M. kansasii SWK) of 1 µg/mL (≈ 4.02 µM) and an MIC (M. tuberculosis 102; [2]) of 1 µg/mL (≈ 4.02 µM).

In the case of CN(C)CCOC(=O)c1cnccn1 [N,N-dimethyl-2-aminoethyl pyrazinoate], the “in vitro activity against M. tuberculosis H37RV” value [1] is given as “active”.

For CCOCCOCCOC(=O)c1cnc(Cl)cn1 [Example 10], the MIC (M. avium 101) was 64 µg/mL (≈ 233 µM), the MIC (M. kansasii SWK) was 4 µg/mL (≈ 14.6 µM) and the MIC (M. tuberculosis 102; [2]) was 1 µg/mL (≈ 3.64 µM).
